These are literature values, as cited in patent publication US20200061085A1, “COMPOSITION FOR TREATMENT, INHIBITION AND ATTENUATION OF MELANOMA VIRUS AND PREVENTION OF SKIN CANCERS” (priority 2018, published 2020).

For the data set the following is noted: STS given exogenously, 90 years of cumulative uses (renal, cyanide, eclampsia).

For sodium thiosulfate [STS], the fatalities result is listed as “no fatalities”.
